Experimental data reported in patent US10766888B1, “HMOX1 inducers” (Mitobridge Inc., priority 2019, dated 2020).
Where a name gives a salt, the structure may show the parent alone. Read-outs that look alike come from different tables or passages of the source.

Key:
[1] = test system: Human Heme Oxygenase-1 (HMOX-1); experiment: ELISA assay to measure human heme oxygenase-1 (HMOX-1) in HepG2 lysate; type: cell-based
How it was run: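 Treated HepG2 cells were lysed in PBS with 0.5% Triton X100, 1 mM EDTA and protease inhibitors, and lysates were diluted 1:20. HO-1 was measured by sandwich ELISA (biotinylated detection antibody, streptavidin-HRP, chemiluminescence) at room temperature against a standard curve from 20 ng/ml. EC50 and fold change were expressed relative to DMSO control.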

[2] = PD study: compound concentration in mouse liver; type: in vivo, C57BL/6 mice; conditions: male, C57BL/6, mouse, 50 mg/kg, 50 mpk oral
Description: 9-10 week old male C57BL/6 mice were dosed orally with 50 mg/kg of vehicle or compound formulated in 5% w/v tween 80 and 0.5% methyl cellulose. At indicated time points (3 and 6 hours or or 4 and 8 hours post-dosing as shown in the results below), whole blood was collected, animal was sacrificed and liver was collected. Blood samples were transferred to vials containing 4 μL of 10% w/v EDTA, centrifuged at 6000 rpm for 8 in below 10° C. to obtain plasma. Samples were frozen and later processed for HMOX1 protein levels as indicated below: […]

hERG channel = hERG channel (Homo sapiens, UniProt Q12809); experiment: hERG manual patch clamp assay; type: cell-based; conditions: HEK 293 cells stably expressing hERG channel, pH 7.35, 10 μM compound
Description: Cell Lines and Cell Culture
HEK 293 cell line stably expressing hERG channel (Cat # K1236) was purchased from Invitrogen. The cells were cultured in 85% DMEM, 10% dialyzed FBS, 0.1 mM NEAA, 25 mM HEPES, 100 U/mL Penicillin-Streptomycin and 5 μg/mL Blasticidin and 400 μg/mL Geneticin. Cells were split using TrypLE™ Express about three times a week, and maintained between ˜40% to ˜80% confluence. Before the assay, the cells were transferred onto the coverslips at 5×10^5 cells/per 6 cm cell culture dish and induced with doxycycline at 1 μg/mL for 48 hours.
• 1) External solution (in mM): 132 NaCl, 4 KCl, 3 CaCl2, 0.5 MgCl2, 11.1 glucose, and 10 HEPES (pH adjusted to 7.35 with NaOH) • 2) Internal solution (in mM): 140 KCl, 2 MgCl2, 10 EGTA, 10 HEPES and 5 MgATP (pH adjusted to 7.35 with KOH) • 3) hERG currents were tested in presence of 10 μM compound concentration with final concentration of DMSO of 0.1%. Experimental Procedure • 1) Removed the coverslip from the cell culture dish and placed it on the microscope stage in bath chamber. • 2) Located a desirable cell using the 10× objective. Located the tip of the electrode under the microscope using the 10× objective by focusing above the plane of the cells. Once the tip was in focus, advanced the electrode downwards towards the cell using the coarse controls of the manipulator, while simultaneously moving the objective to keep the tip in focus. • 3) When directly over the cell, switched to the 40× objective and used the fine controls of the manipulator to approach the surface of the cell in small steps. • 4) Applied gentle suction through the side-port of the electrode holder to form a gigaohm seal. • 5) Used the Cfast to remove the capacity current that was in coincidence with the voltage step. Obtained the whole cell configuration by applying repetitive, brief, strong suction until the membrane patch ruptured. • 6) Set membrane potential to −60 mV at this point to ensure that hERG channels were not • open. The spikes of capacity current should then be cancelled using the Cslow on the amplifier. 7) Set holding potential to −90 mV for 500 ms; recorded current at 50 kHz and filtered at 10 kHz. Leaking current was tested at −80 mV for 500 ms. • 8) The hERG current was elicited by depolarizing at +30 mV for 4.8 seconds and then the voltage was taken back to −50 mV for 5.2 seconds to remove the inactivation and observe the deactivating tail current. The maximum amount of tail current size was used to determine hERG current amplitude. • 9) Recorded current for 120 seconds to assess the current stability. Only stable cells with recording parameters above threshold were applied for the compound administrations. • 10) Firstly vehicle control was applied to the cells to establish the baseline. […] In order to ensure the good performance of cultured cells and operations, the positive control, Dofetilide, with 5 dose concentration was also used to test the same batch of cells. Data Analysis
The following criteria were used to determine data acceptability. • 1) Initial seal resistance >1 GΩ; • 2) Leak currents <50% of the control peak tail currents at any time; • 3) The peak tail amplitude >250 pA; • 4) Membrane resistance Rm>500 MΩ; • 5) Access resistance (Ra)<10 MΩ; • 6) Apparent run-down of peak current <2.5% per min.
Data that met the above criteria for hERG current quality were further analyzed as the following steps. • 1) Percent hERG current inhibition was calculated using the following equation. • Note: PatchMaster or Clampfit software was used to extract the peak current from the original data.
[formula] • 2) The dose response curve of test compounds was plotted with percentage of hERG current inhibition against the concentration of test compounds using Graphpad Prism 6.0, and fit to a sigmoid dose-response curve with a variable slope.

[3] = PK study: plasma and brain levels in mice; type: in vivo, C57BL/6 mice; conditions: mouse, plasma, measured in a previous study
FTH1 = FTH1 mRNA expression in HepG2 cells (Nanostring); type: cell-based, human; conditions: 24 hours treatment
Description: RNA Isolation and Quantification of Gene Expression
HepG2 cells were seeded at 250 k/well in 12-well tissue culture plates coated with collagen (collagen I, rat tail (thin plate coating); ENZO Life Sciences) for approximately 24 hours. The seeded cells were then treated with dose titration of the compound of Example 17 or dimethyl fumarate (DMF) (a Nrf2 activator; Fisher Scientific) via media change, with biological triplicates performed for each treatment. After approximately 24 hours of treatment, cells were visually inspected to confirm that no toxicity occurred with compound treatment. The treated cells were washed with PBS, aspirated, parafilmed and frozen at −80° C. prior to RNA isolation. RNA was isolated using Machery-Nagel isolation kit (NucleoSpin® RNA: catalog 740955.250) and then quantitated using ThermoFisher Nanodrop.
RNA was diluted for Nanostring gene expression analysis. The diluted RNA at an input of 200 ng RNA was run on a Nanostring instrument, which was supported with nCounter® SPRINT Profiler System and nSolver4.0 Software, nCounter® SPRINT Cartridge, nCounter® SPRINT Reagent Pack, and nCounter® SPRINT Hybridization Buffer. Analysis was done manually using raw data obtained from nSolver4.0 Software. CLTC, POLR2A, RPL27 and TBP were used as reference genes for normalization. Data was graphed as fold change compared to DMSO treatment. […]

Sequence of hERG channel (Q12809 whole entry): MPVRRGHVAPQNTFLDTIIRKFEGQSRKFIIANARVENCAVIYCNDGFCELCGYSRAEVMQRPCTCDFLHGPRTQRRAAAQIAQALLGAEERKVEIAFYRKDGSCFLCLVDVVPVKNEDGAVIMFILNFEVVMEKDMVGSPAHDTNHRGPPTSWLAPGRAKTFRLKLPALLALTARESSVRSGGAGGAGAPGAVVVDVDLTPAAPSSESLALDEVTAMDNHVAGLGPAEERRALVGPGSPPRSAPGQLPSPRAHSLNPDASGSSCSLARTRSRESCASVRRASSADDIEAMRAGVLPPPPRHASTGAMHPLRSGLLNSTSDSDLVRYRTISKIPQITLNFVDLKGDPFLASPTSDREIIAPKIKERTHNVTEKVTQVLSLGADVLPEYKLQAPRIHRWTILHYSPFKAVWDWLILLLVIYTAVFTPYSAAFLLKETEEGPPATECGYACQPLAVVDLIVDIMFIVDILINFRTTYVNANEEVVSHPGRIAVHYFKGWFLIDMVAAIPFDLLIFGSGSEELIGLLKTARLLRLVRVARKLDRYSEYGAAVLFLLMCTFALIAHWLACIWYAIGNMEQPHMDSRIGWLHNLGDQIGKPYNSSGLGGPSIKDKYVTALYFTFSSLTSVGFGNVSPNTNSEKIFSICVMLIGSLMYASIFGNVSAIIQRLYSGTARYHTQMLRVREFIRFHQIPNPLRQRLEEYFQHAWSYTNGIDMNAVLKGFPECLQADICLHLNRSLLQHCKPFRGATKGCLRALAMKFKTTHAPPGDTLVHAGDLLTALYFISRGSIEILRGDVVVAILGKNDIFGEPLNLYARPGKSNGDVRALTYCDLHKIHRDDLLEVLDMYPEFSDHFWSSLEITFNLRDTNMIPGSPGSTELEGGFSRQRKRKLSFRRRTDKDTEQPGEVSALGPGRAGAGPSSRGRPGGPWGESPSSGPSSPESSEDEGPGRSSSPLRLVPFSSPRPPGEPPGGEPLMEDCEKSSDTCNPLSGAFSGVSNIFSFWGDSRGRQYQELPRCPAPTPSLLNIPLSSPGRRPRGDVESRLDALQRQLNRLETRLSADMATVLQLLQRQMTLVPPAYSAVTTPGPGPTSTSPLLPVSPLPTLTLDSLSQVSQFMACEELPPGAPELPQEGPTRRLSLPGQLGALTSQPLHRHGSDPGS

Row | SMILES | EC50 ([1]; HepG2, human HMOX1, as listed in Table 5, read-out: HMOX1 EC50 h) | EC50 ([1]; human HMOX1 protein level in HepG2 lysate, * = average of 2 or more EC50 determinations, NA = Not Active, read-out: EC50) | concentration at 3 h ([2]; 3 h, read-out: Liver Conc uM (3 h)) | concentration at 6 h ([2]; 6 h, read-out: Liver Conc uM (6 h)) | inhibition at 10 µM (hERG channel) | concentration at 1 h ([3]; 1 hr) | concentration at 4 h ([3]; 4 hr) | FTH1 expression fold increase (in words) (FTH1)
1 | Cn1c(Nc2nc3ccc(OC(F)(F)F)cc3s2)nc2cc(C(=O)NCCOCCO)ccc21 [Comparator 1, 1-methyl-2-(6-trifluoromethoxy-benzothiazol-2-ylamino)-1H-benzoimidazole-5-carboxylic acid [2-(2-hydroxy-ethoxy)-ethyl]-amide, reference compound] | 900 nM | 900 nM | 12.2 µM | 1.3 µM | 66% | 2070 ± 318 ng/mL | 288 ± 124 ng/mL | –
2 | COC(=O)/C=C/C(=O)OC [DMF, dimethyl fumarate, reference compound] | – | – | – | – | – | – | – | comparable fold increases
